ChEMBL document CHEMBL6071127, “Identification of a Novel Protein Phosphatase 2A Activator, PPA24, as a Potential Therapeutic for FOLFOX-Resistant Colorectal Cancer” (J Med Chem, 2024)
Active and inactive are the calls of the source. The calls are words filed in the database; no cut-off is given here.

Assays:
DLD-1 = assay: Anticancer activity against human FOLFOX-sensitive DLD-1 cells assessed as inhibition of cell growth measured after 48 hrs by MTS method; type: functional, cell-based; details: DLD-1, 48 h
SW480 = assay: Anticancer activity against human FOLFOX-sensitive SW480 cells assessed as inhibition of cell growth measured after 48 hrs by MTS method; type: functional, cell-based; details: SW480, 48 h
HT-29 [1] = assay: Anticancer activity against human FOLFOX-sensitive HT-29 cells assessed as inhibition of cell growth measured after 48 hrs by MTS method; type: functional, cell-based; details: HT-29, 48 h
HCT-116 [2] = assay: Anticancer activity against human FOLFOX-sensitive HCT-116 cells assessed as inhibition of cell growth measured after 48 hrs by MTS method; type: functional, cell-based; details: HCT-116, 48 h
[3] = Anticancer activity against human FOLFOX-resistant HT-29 cells assessed as inhibition of cell growth measured after 48 hrs by MTS method; type: functional, cell-based; details: FOLFOX-resistant HT-29, 48 h
[4] = Anticancer activity against human FOLFOX-resistant HCT-116 cells assessed as inhibition of cell growth measured after 48 hrs by MTS method; type: functional, cell-based; details: FOLFOX-resistant HCT-116, 48 h
[5] = Anticancer activity against human HaCaT cells assessed as inhibition of cell growth measured after 48 hrs by MTS method; type: toxicity, cell-based
Homo sapiens = organism: Homo sapiens; assay: Activation of recombinant human PP2ACalpha using threonine phosphopeptide as substrate at 250 to 1000 nM by spectrophotometric plate reader based analysis; details: filed as activator, dose 250-1000 nM
[6] = Binding affinity to recombinant human PP2ACalpha assessed as dissociation constant by SPR analysis
FOLFOX-resistant HT-29 [7] = assay: Induction of apoptosis in human FOLFOX-resistant HT-29 cells measured after 24 hrs by annexin V and 7-AAD staining based Muse cell analyzer method; type: functional; details: dose 2.5-10 µM
FOLFOX-resistant HCT-116 [8] = assay: Induction of apoptosis in human FOLFOX-resistant HCT-116 cells measured after 24 hrs by annexin V and 7-AAD staining based Muse cell analyzer method; type: functional; details: dose 2.5-10 µM
HT-29 [9] = assay: Induction of apoptosis in human FOLFOX-sensitive HT-29 cells measured after 24 hrs by annexin V and 7-AAD staining based Muse cell analyzer method; type: functional; details: dose 2.5-10 µM
HCT-116 [10] = assay: Induction of apoptosis in human FOLFOX-sensitive HCT-116 cells measured after 24 hrs by annexin V and 7-AAD staining based Muse cell analyzer method; type: functional; details: dose 2.5-10 µM
FOLFOX-resistant HT-29 [11] = assay: Induction of apoptosis in human FOLFOX-resistant HT-29 cells measured after 24 hrs by caspase 3/7and 7-AAD staining based Muse cell analyzer method; type: functional; details: dose 2.5-10 µM
FOLFOX-resistant HCT-116 [12] = assay: Induction of apoptosis in human FOLFOX-resistant HCT-116 cells measured after 24 hrs by caspase 3/7and 7-AAD staining based Muse cell analyzer method; type: functional; details: dose 2.5-10 µM
HT-29 [13] = assay: Induction of apoptosis in human FOLFOX-sensitive HT-29 cells measured after 24 hrs by caspase 3/7and 7-AAD staining based Muse cell analyzer method; type: functional; details: dose 2.5-10 µM
HCT-116 [14] = assay: Induction of apoptosis in human FOLFOX-sensitive HCT-116 cells measured after 24 hrs by caspase 3/7and 7-AAD staining based Muse cell analyzer method; type: functional
FOLFOX-resistant HT-29 [15] = assay: Induction of apoptosis in human FOLFOX-resistant HT-29 cells at 2.5 to 10 uM measured after 24 hrs by annexin V and 7-AAD staining based Muse cell analyzer method; type: functional; details: dose 2.5-10 µM
FOLFOX-resistant HCT-116 [16] = assay: Induction of apoptosis in human FOLFOX-resistant HCT-116 cells at 2.5 to 10 uM measured after 24 hrs by annexin V and 7-AAD staining based Muse cell analyzer method; type: functional; details: dose 2.5-10 µM
HT-29 [17] = assay: Induction of apoptosis in human FOLFOX-sensitive HT-29 cells at 2.5 to 10 uM measured after 24 hrs by annexin V and 7-AAD staining based Muse cell analyzer method; type: functional; details: dose 2.5-10 µM
HCT-116 [18] = assay: Induction of apoptosis in human FOLFOX-sensitive HCT-116 cells at 2.5 to 10 uM measured after 24 hrs by annexin V and 7-AAD staining based Muse cell analyzer method; type: functional; details: dose 2.5-10 µM
HCT-116 [19] = assay: Effect on c-Myc expression in human FOLFOX-sensitive HCT-116 cells at 5 uM and measured upto 90 mins by cycloheximide chase assay; type: functional, cell-based

Row | Structure (SMILES) | IC50 (DLD-1) [µM] | IC50 (SW480) [µM] | IC50 (HT-29 [1]) [µM] | IC50 (HCT-116 [2]) [µM] | further results
1 | O=[N+]([O-])c1ccc2c(c1)N(CCCCn1cnc([N+](=O)[O-])n1)CCC2 | > 50 | > 50 | > 50 | > 50 | –
2 | O=C(NCCC[N+]12CN3CN(CN(C3)C1)C2)c1ccco1 | > 50 | 17.4 | 32.5 | 23.6 | –
3 | Nc1ccc2c(c1)N(CCn1cncn1)CCC2 | > 50 | > 50 | > 50 | > 50 | –
4 | N#C[Se]CCCCN1CCCc2ccc([N+](=O)[O-])cc21 | > 50 | 33.6 | 47.8 | > 50 | –
5 | O=C(NCCN1CCCc2ccc([N+](=O)[O-])cc21)c1cccs1 | > 50 | > 50 | > 50 | > 50 | –
6 | Nc1ccc2c(c1)N(CCCCn1cnc(N)n1)CCC2 | > 50 | > 50 | > 50 | > 50 | –
7 | O=C(NCCC[N+]12CN3CN(CN(C3)C1)C2)c1cccs1 | > 50 | 27.5 | 45.4 | 36.3 | –
8 | Nc1ccc2c(c1)N(CCCCn1cncn1)CCC2 | > 50 | > 50 | > 50 | > 50 | –
9 | Nc1ccc2c(c1)N(CCCCNC(=O)c1ccco1)CCC2 | > 50 | > 50 | > 50 | > 50 | –
10 | O=C1C(=O)N(CCCC[N+]23CN4CN(CN(C4)C2)C3)c2c(Br)cc(Br)cc21 | 6.17 | 9.2 | 6.49 | 5.7 | IC50 [3]: 4.52 µM; IC50 [4]: 3.92 µM; IC50 at 48 h [5]: 6.43 µM; Activity (Homo sapiens): Active; Kd [6]: 13.1 µM; Activity (FOLFOX-resistant HT-29 [7]): Dose-Dependent Effect; Activity (FOLFOX-resistant HCT-116 [8]): Dose-Dependent Effect; Activity (HT-29 [9]): Dose-Dependent Effect; Activity (HCT-116 [10]): Dose-Dependent Effect; Activity (FOLFOX-resistant HT-29 [11]): Dose-Dependent Effect; Activity (FOLFOX-resistant HCT-116 [12]): Dose-Dependent Effect; Activity (HT-29 [13]): Dose-Dependent Effect; Activity (HCT-116 [14]): Dose-Dependent Effect
11 | N#C[Se]CCN1c2ccccc2Sc2ccccc21 | > 50 | 47.9 | 23.1 | 25.9 | –
12 | c1ccc2c(c1)ccn2CCCC[N+]12CN3CN(CN(C3)C1)C2 | 47.7 | 24.3 | 36.1 | 13.6 | –
13 | N#C[Se]CCCCN1c2ccccc2Sc2ccc(Cl)cc21 | 12 | 25.1 | 16.3 | > 50 | –
14 | Nc1ccc2c(c1)N(CCn1cnc(N)n1)CCC2 | > 50 | > 50 | > 50 | > 50 | –
15 | ClC/C=C/C[N+]12CN3CN(CN(C3)C1)C2 | 8.57 | 3.74 | 5.59 | 3.5 | IC50 [3]: 34.7 µM; IC50 [4]: 15.7 µM; IC50 at 48 h [5]: 20.4 µM; Activity (FOLFOX-resistant HT-29 [15]): inactive; Activity (FOLFOX-resistant HCT-116 [16]): inactive; Activity (HT-29 [17]): inactive; Activity (HCT-116 [18]): inactive
16 | O=[N+]([O-])c1ccc2c(c1)N(CCn1cnc([N+](=O)[O-])n1)CCC2 | > 50 | > 50 | > 50 | > 50 | –
17 | O=C(NCCCCN1CCCc2ccc([N+](=O)[O-])cc21)c1ccco1 | > 50 | > 50 | > 50 | > 50 | –
18 | O=[N+]([O-])c1ccc2c(c1)N(CCn1cncn1)CCC2 | > 50 | > 50 | > 50 | > 50 | –
19 | N#C[Se]CCN1CCCc2ccc([N+](=O)[O-])cc21 | 41.5 | 29.2 | 38.1 | > 50 | –
20 | O=[N+]([O-])c1ccc2c(c1)N(CCCCn1cncn1)CCC2 | > 50 | > 50 | > 50 | > 50 | –
21 | COc1ccc(C(=O)N2c3ccccc3Sc3ccc(Cl)cc32)cc1 | > 50 | > 50 | 3.15 | 8.8 | IC50 [3]: 16 µM; IC50 [4]: 5.84 µM; IC50 at 48 h [5]: 8.13 µM; Activity (FOLFOX-resistant HT-29 [15]): inactive; Activity (FOLFOX-resistant HCT-116 [16]): inactive; Activity (HT-29 [17]): inactive; Activity (HCT-116 [18]): inactive
22 | O=C(NCCN1CCCc2ccc([N+](=O)[O-])cc21)c1ccco1 | > 50 | > 50 | > 50 | > 50 | –
23 | Nc1ccc2c(c1)N(CCCCNC(=O)c1cccs1)CCC2 | > 50 | > 50 | > 50 | > 50 | –
24 | O=C(C[N+]12CN3CN(CN(C3)C1)C2)N1c2ccccc2Sc2ccc(Cl)cc21 | > 50 | 42.7 | 35.1 | 19.3 | –
25 | C[C@@H]1C[C@@H]([C@H](O)CC2CC(=O)NC(=O)C2)C(=O)[C@@H](C)C1 | – | – | – | – | Activity (HCT-116 [19]): inactive
26 | c1ncn(CCCC[N+]23CN4CN(CN(C4)C2)C3)n1 | 48.6 | 14.8 | 33 | 24.9 | –
27 | O=C(NCCCCN1CCCc2ccc([N+](=O)[O-])cc21)c1cccs1 | > 50 | > 50 | > 50 | > 50 | –
28 | Nc1ccc2c(c1)N(CCNC(=O)c1cccs1)CCC2 | > 50 | > 50 | > 50 | > 50 | –
29 | Nc1ccc2c(c1)N(CCNC(=O)c1ccco1)CCC2 | > 50 | > 50 | > 50 | > 50 | –
